Consider four compounds from publication PMC8199245, “Serotonin Promotes Serum Albumin Interaction with the Monomeric Amyloid β Peptide” (International Journal of Molecular Sciences, 2021).

Test [1] addresses T1, HSA–monomeric Aβ40 (recombinant human Aβ40) (Homo sapiens, UniProt P02768). The test is described as follows: SPR of HSA interaction with immobilized monomeric Aβ40, without/with SRO or TRP. The settings on record: SPR 25 °C; for Kd: KD (apparent, HSA–Aβ40), KD × 10^7, i.e. value × 10^−7 M; for Kd / ka (effective, HSA–Aβ40) / kd (effective, HSA–Aβ40): pH 7.4, HSA 5–60 µM, mean ± SD; for ka (effective, HSA–Aβ40): ka × 10^−3, i.e. value × 10^3 M^−1s^−1; for kd (effective, HSA–Aβ40): kd × 10^4, i.e. value × 10^−4 s^−1. On the procedure: (§1) The recombinant human Aβ40 or Aβ42 sample was immobilized on the surface of the SPR sensor chip by amine coupling, followed by removal from the surface of the non-covalently bound Aβ molecules by a 2% SDS water solution [12]. […] (5–60 µM) was used as an analyte.
(§2) Aβ40/Aβ42 was immobilized on the sensor chip’s surface by amine coupling.
(§3) Recombinant human Aβ40/Aβ42 samples were pretreated for SPR measurements mainly as described in [46]. The freeze-dried Aβ sample was dissolved in neat TFA at a concentration of 0.5–1 mg/mL. The solution was sonicated for 30 s. TFA was evaporated using Eppendorf Concentrator plus. The dried Aβ sample was dissolved in DMSO at a concentration of 2 mg/mL, and stored at −20 °C.
(§4) SPR measurements were performed at 25 °C using a Bio-Rad ProteOn™ XPR36 instrument mainly as previously described. Ligand (57 μg/mL recombinant human Aβ40/Aβ42 in 10 mM sodium acetate, pH 4.5 buffer) was immobilized on a ProteOn GLH sensor chip surface (up to 7000–9000 RUs) by amine coupling. The remaining activated amine groups on the chip surface were blocked by 1 M ethanolamine solution. The non-covalently bound Aβ40/Aβ42 molecules were washed from the chip surface with 2% SDS water solution until stabilization of the signal. […] The sensor chip surface was regenerated by passage of 10 mM EDTA pH 7.9 solution containing 2% SDS. […] The double-referenced SPR sensograms were globally fitted according to the one-site binding model using Bio-Rad ProteOn Manager™ v.3.1 software.

Test [2] addresses T2, HSA–monomeric Aβ42 (recombinant human Aβ42) (Homo sapiens, UniProt P02768). Put plainly: SPR of HSA interaction with immobilized monomeric Aβ42, without/with SRO or TRP. The settings on record: SPR 25 °C; for Kd: KD (apparent, HSA–Aβ42), KD × 10^7, i.e. value × 10^−7 M; for Kd / ka (effective, HSA–Aβ42) / kd (effective, HSA–Aβ42): pH 7.4, HSA 5–60 µM, mean ± SD; for ka (effective, HSA–Aβ42): ka × 10^−3, i.e. value × 10^3 M^−1s^−1; for kd (effective, HSA–Aβ42): kd × 10^4, i.e. value × 10^−4 s^−1. On the procedure:
as §1, §2, §3, §4

For test [3], the system named is HSA–monomeric Aβ. The test is described as follows: SPR of HSA interaction with monomeric Aβ (isoform not given). The test is classed as binding, human. The settings on record: general statement; SPR.
The subject of test [4] is HSA. The test is described as follows: Glutaraldehyde crosslinking of HSA with SDS-PAGE. Further details: species or system human. The settings on record: 1 mM ligand, HSA 36 µM, glutaraldehyde crosslinking, 37 °C; overall statements also rest on DLS.
Test [5] concerns HSA. The settings on record: cited from earlier work.
A further test deals with Aβ42. Further details: method as in PMID 29131485. The settings on record: cited from earlier work.
Test [6] relates to HSA-induced suppression of Aβ fibrillation. Further details: method as in 2 sources, ref 5 = [5]; PMID 10347147; doi:10.1074/jbc.274.23.15990; 5. Bohrmann B. Tjernberg L. Kuner P. Poli S. Levet-Trafit B. Naslund J. Richards G. Huber W. Dobeli H. Nordstedt C. Endogenous proteins controlling amyloid beta-peptide polymerization. Possible implic ||| ref 14 = [14]; PMID 29409811; doi:10.1016/j.jmb.2018.01.008; 14. Bode D.C. Stanyon H.F. Hirani T. Baker M.D. Nield J. Viles J.H. Serum albumin’s protective inhibition of amyloid-β fiber formation is suppressed by cholesterol, fatty acids and warfarin J. Mol. Bi. The settings on record: cited from earlier work.

The target of test [7] is T1, HSA–monomeric Aβ40 (recombinant human Aβ40). Set-up: method as in PMID 30685090. The settings on record: cited from earlier work.
For test [8], the target named is T2, HSA–monomeric Aβ42 (recombinant human Aβ42). Further details: method as in PMID 30685090. The settings on record: cited from earlier work.
The test system of test [9] is HSA–monomeric Aβ. The settings on record: cited from earlier work. An excerpt:
An alternative, less invasive approach to the lowering of the free Aβ level in the brain is a pharmacologically guided shift in the equilibrium between HSA and Aβ towards their complex. The latter possibility was recently confirmed by arachidonic/linoleic-aci ...

Entries after “also recorded” stand apart in the source; their conditions may differ.

T2 sequence (P05067 672-713): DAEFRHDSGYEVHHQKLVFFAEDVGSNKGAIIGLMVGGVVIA
T2 sequence (P02768 25-609): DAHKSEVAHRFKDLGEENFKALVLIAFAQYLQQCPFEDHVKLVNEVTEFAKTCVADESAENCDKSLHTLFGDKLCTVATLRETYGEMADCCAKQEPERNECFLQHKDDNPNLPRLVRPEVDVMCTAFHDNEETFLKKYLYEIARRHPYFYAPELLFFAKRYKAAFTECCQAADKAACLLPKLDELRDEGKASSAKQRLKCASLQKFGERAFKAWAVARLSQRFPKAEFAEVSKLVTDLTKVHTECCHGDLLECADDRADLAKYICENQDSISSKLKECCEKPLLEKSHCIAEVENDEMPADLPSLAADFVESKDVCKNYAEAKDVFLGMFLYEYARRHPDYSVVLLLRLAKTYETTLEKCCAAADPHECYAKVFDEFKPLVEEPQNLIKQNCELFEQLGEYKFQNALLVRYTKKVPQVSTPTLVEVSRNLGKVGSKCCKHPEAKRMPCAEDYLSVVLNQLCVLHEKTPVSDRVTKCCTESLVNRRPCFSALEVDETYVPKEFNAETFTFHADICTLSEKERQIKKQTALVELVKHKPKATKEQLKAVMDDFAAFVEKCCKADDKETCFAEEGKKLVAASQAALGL
T1 sequence (P05067 672-711): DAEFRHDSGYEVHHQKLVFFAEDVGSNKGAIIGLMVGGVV
T1 sequence (P02768 25-609): as the sequence (P02768 25-609) above

Turning to `N[C@@H](Cc1c[nH]c2ccccc12)C(=O)O` [TRP, L-tryptophan], the “effect on HSA's apparent affinity to Aβ40” value in test [1] (1 mM ligand) is “did not affect HSA’s apparent affinity”. Moreover, in [1] (10 µM HSA ligand), the Kd was found to be 80 ± 40 nM; the “ka (effective, HSA–Aβ40)” value is 0.7 ± 0.2 × 10^−3, M^−1s^−1; the “kd (effective, HSA–Aβ40)” value is 0.49 ± 0.12 × 10^4, s^−1. In test [1] (1 mM HSA ligand), the Kd was 70 ± 40 nM; the “ka (effective, HSA–Aβ40)” value is listed as 0.6 ± 0.2 × 10^−3, M^−1s^−1; the “kd (effective, HSA–Aβ40)” value is reported as 0.4 ± 0.2 × 10^4, s^−1. In [1] (100 µM HSA ligand), the “ka (effective, HSA–Aβ40)” value is listed as 0.47 ± 0.15 × 10^−3, M^−1s^−1 and the “kd (effective, HSA–Aβ40)” value is reported as 0.53 ± 0.17 × 10^4, s^−1. Besides, the “effect on kinetics of HSA–Aβ42 interaction” value in test [2] (1 mM TRP) was “slowdown of the association and dissociation processes”. The “effect on HSA's apparent affinity to Aβ42” value in test [2] (1 mM ligand) was “did not affect HSA’s apparent affinity”. For the same compound, in [2] (10 µM HSA ligand), the Kd came to 60 ± 40 nM; the “ka (effective, HSA–Aβ42)” value is on record as 0.8 ± 0.4 × 10^−3, M^−1s^−1; the “kd (effective, HSA–Aβ42)” value was 0.4 ± 0.2 × 10^4, s^−1. Also, in [2] (1 mM HSA ligand), the Kd was determined as 60 ± 30 nM and the “ka (effective, HSA–Aβ42)” value is listed as 0.29 ± 0.07 × 10^−3, M^−1s^−1. For the same compound, in [2] (100 µM HSA ligand), the “ka (effective, HSA–Aβ42)” value is given as 0.5 ± 0.3 × 10^−3, M^−1s^−1 and the “kd (effective, HSA–Aβ42)” value was 0.7 ± 0.6 × 10^4, s^−1. Moreover, in the test with HSA–monomeric Aβ [3], the “effect on HSA's affinity to monomeric Aβ / activation of HSA–Aβ interaction” value is “does not affect HSA’s affinity to monomeric Aβ; also recorded: did not affect HSA’s effective affinity for Aβ; also recorded: inactive”; the “effect on kinetics of HSA–Aβ interaction” value was “slowdown of the association and dissociation processes; also recorded: slowed their association and dissociation”. Also, the “effect on quaternary structure of HSA” value in the test with HSA [4] is reported as “did not affect the quaternary structure of HSA”. In addition, the “equilibrium association constant of TRP with HSA” value in the test with HSA [5] is 27000 M⁻¹. Also, the “inhibition of Aβ42 fibrillation compared with SRO” value in the test with Aβ42 is recorded as “markedly less effective; also recorded: much less efficient inhibition of Aβ42 fibrillation”.

Regarding `CC(C)CCC[C@@H](C)[C@H]1CC[C@H]2[C@@H]3CC=C4C[C@@H](O)CC[C@]4(C)[C@H]3CC[C@]12C` [cholesterol], in test [6], the “effect on HSA-induced suppression of Aβ fibrillation” value is reported as “prevent HSA-induced suppression of Aβ fibrillation”.

As for `CC(=O)CC(c1ccccc1)c1c(O)c2ccccc2oc1=O` (stereo not shown) [warfarin], the “effect on HSA-induced suppression of Aβ fibrillation” value in test [6] is recorded as “prevent HSA-induced suppression of Aβ fibrillation”.

Regarding `CCCCC/C=C\C/C=C\C/C=C\C/C=C\CCCC(=O)O` [arachidonic acid], the “fold decrease in KD of HSA–monomeric Aβ40” value in [7] is reported as 3 fold. Besides, in test [8], the “fold decrease in KD of HSA–monomeric Aβ42” value was 3 fold. Besides, the “effect on HSA affinity to Aβ” value in the test with HSA–monomeric Aβ [9] was “enhancement of HSA affinity to Aβ”.
